Reference: US9993444B2, “Use of beta-adrenergic inverse agonists for smoking cessation” (INVION, INC., priority 2011, dated 2018)
“Also recorded” adds a separate entry of the source.

How the values were obtained:
patients with CHF = conditions: cited from earlier work
β-adrenergic receptor = conditions: cited from earlier work
[1] = acute administration; U.S. Pat. No. 6,284,800; cited from earlier work
[2] = system: tracheas from asthmatic mice; conditions: chronically treated asthmatic mice, excised tracheas; WO 02/29534; cited from earlier work
[3] = system: sensitized and challenged mice; experiment: Airway hyperresponsiveness to methacholine in a mouse model of obstructive lung disease, chronic administration; format: in vivo; conditions: for airway hyperresponsiveness: compared to untreated sensitized and challenged mice
Description: Even though alprenolol is a β-adrenergic antagonist, it has partial agonist activity. Carvedilol is a β1/β2 non-selective adrenergic antagonist with α1-adrenergic antagonist activity.

asthmatic mice [4] = experiment: Lung histology (periodic acid-Schiff stain, goblet cells/mucus) after chronic inverse agonist treatment of ovalbumin-sensitized and -challenged mice; format: in vivo, Balb/cJ mice
Method: (§1) Mice were made asthmatic by sensitization to the antigen ovalbumin. Balb/cJ mice aged 6 weeks (Jackson Animal Laboratory, Bar Harbor, Me.) were housed under specific pathogen-free conditions and fed a chicken ovalbumin-free diet. Mice were sensitized with subcutaneous injection of 25 μg of ovalbumin adsorbed to aluminum hydroxide on protocol days 2, 9, and 16. Subsequently, mice were given […] of saline solution containing 25 μg of ovalbumin intranasally, on a daily basis, from protocol days 23 through 27. A group of ovalbumin-sensitized saline-challenged mice serves as controls for systemic sensitization and respiratory challenges with ovalbumin. Prior to intranasal administrations, mice were sedated with halothane vapor. For the study of this Example, ovalbumin-sensitized and ovalbumin-challenged mice, and ovalbumin-sensitized and saline-challenged mice will be referred to as asthmatic mice and control mice, respectively.
(§2) Animals received drug treatment for 7 days from day 21 to 27 of the sensitization/challenging protocol; ICI-118,551 at 10 mg/kg, was administered 3 times a day subcutaneously by osmotic minipump (Alzet®, #2004, Durect Corporation, Cupertino, Calif.). ICI-118,551 was dissolved in 50% DMSO. […]

asthmatic mice [5] = experiment: Lung histology (hematoxylin-eosin) after chronic inverse agonist treatment of ovalbumin-sensitized and -challenged mice; format: in vivo, Balb/cJ mice; conditions: ICI-118,551 10 mg/kg subcutaneously by osmotic minipump, 7 days (day 21 to 27)
Method: as §1, §2

CC(C)(Cc1c[nH]c2ccccc12)NCC(O)COc1ccccc1C#N (stereo not shown) [bucindolol]
clinical outcome in congestive heart failure (mortality / benefit over placebo) (patients with CHF): failed to demonstrate any benefit over placebo

CC(C)NC[C@@H](O)COc1cccc2ccccc12 [D-propranolol]
potency in inhibiting the β-adrenergic receptor relative to the L-form (β-adrenergic receptor; U.S. Pat. No. 5,116,867): 1/100
activity with respect to β-adrenergic receptors (β-adrenergic receptor; U.S. Pat. No. 6,284,800): inactive
antigen-induced bronchoconstriction and airway hyperresponsiveness [1]: beneficial in inhibiting antigen-induced bronchoconstriction and reducing airway hyperresponsiveness

C=CCc1ccccc1OCC(O)CNC(C)C (stereo not shown) [alprenolol]
rank of effectiveness on tracheal contraction in response to methacholine [2]: most effective compound
airway hyperresponsiveness [3]: does not reduce airway hyperresponsiveness; also recorded: without any activity

COCCc1ccc(OCC(O)CNC(C)C)cc1 (stereo not shown) [metoprolol]
clinical outcome in congestive heart failure (mortality / benefit over placebo) (patients with CHF): significant mortality reduction

CC(C)NC[C@H](O)COc1cccc2ccccc12 [L-form of propranolol, propranolol]
specific lung resistance [1]: increased specific lung resistance

COc1ccccc1OCCNCC(O)COc1cccc2[nH]c3ccccc3c12 (stereo not shown) [carvedilol]
clinical outcome in congestive heart failure (mortality / benefit over placebo) (patients with CHF): significant mortality reduction
rank of effectiveness on tracheal contraction in response to methacholine [2]: followed by carvedilol
sensitivity of the responsiveness to methacholine [3]: shifts the sensitivity of the responsiveness to methacholine to lower concentrations
airway hyperresponsiveness [3]: does reduce airway hyperresponsiveness

Cc1ccc(OCC(O)C(C)NC(C)C)c2c1CCC2 (stereo not shown) [ICI 118,551]
rank of effectiveness on tracheal contraction in response to methacholine [2]: then ICI-118,551
appearance of lung epithelial cells, PAS stain (FIG. 6) (asthmatic mice [4]; ICI-118,551 10 mg/kg subcutaneously by osmotic minipump, 7 days (day 21 to 27)): appear substantially normal
transformation of lung epithelium from ciliated cells to mucus-producing goblet cells (FIGS. 1-6) (asthmatic mice [4]; chronic treatment): restores the airway epithelium to a normal healthy state; also recorded: substantially reversed the transformation of lung epithelium
appearance of lung epithelial cells, hematoxylin-eosin staining (FIG. 3) (asthmatic mice [5]): substantially returned to their normal appearance
